Results: patent US20250281929A1, “MICROFLUIDIC DEVICE AND USES THEREOF” (CASE WESTERN RESERVE UNIVERSITY, priority 2020, published 2025)

What was measured:
healthy RBCs = assay: microfluidic assay of RBC mediated microvascular occlusion (micropillar arrays with integrated electrical impedance measurement); format: cell-based, human; details: RBCs stiffened with 0.08% w/v glutaraldehyde 10 min, 20% hematocrit, mean±SD, N=4; for RBC Electrical Impedance Index (REI): impedance at 10 kHz
Procedure: In order to validate the microfluidic device functionality of assessing RBC mediated microvascular occlusion, healthy RBCs were isolated and treated with 0.08% w/v glutaraldehyde (Sigma Aldrich) for 10 min at room temperature. The glutaraldehyde-stiffened RBCs were then washed with PBS, mixed with untreated healthy RBCs from the same donor at either 1% or 2% v/v ratio, and re-suspended in PBS at 20% hematocrit for testing. Healthy RBCs from the same healthy donor were included in the study design as control.
Microchannels were initially washed with absolute ethanol (100%) and PBS, which was followed by incubation with 2% bovine serum albumin (BSA) overnight to prevent non-specific binding of RBCs to the channel walls. A Flow-EZ™ microfluidic flow control system (Fluigent, Lowell, MA) was used to regulate the flow (FIG. 12). An impedance analyzer (Agilent 4294A, Santa Clara, CA) coupled with a custom printed-circuit board was used to perform electrical impedance measurements. Briefly, impedance magnitude across each of the 3-μm to 10-μm micropillar arrays was recorded over the frequency range of 40 Hz-1 MHz before introducing blood into the microchannel and after completing the washing step. […]
Prior to the experiment, PBS was perfused through the microchannel at 100 mBar for 15 min to allow for any volumetric changes of the microchannel. Thereafter, the baseline impedance reading was obtained for each micropillar array without stopping the PBS flow. […] A second impedance reading was then obtained for each micropillar array upon the conclusion of the post-perfusion wash step. […] For select experiments, the electrical impedance of the 3-μm micropillar array was continuously monitored over the entire duration of the experiment.
To determine the association between the electrical impedance change and microcapillary occlusion in the microchannel, an Olympus IX83 inverted motorized microscope with Olympus CellSense live-cell imaging and analysis software were used to obtain high-resolution microscopic images. The images were further processed by Adobe Photoshop software (San Jose, CA), in which the obstructed microcapillaries were manually counted. […]
[formula] [formula] • where, • n=Total number of capillary networks within the area of interest • i=The i^th capillary network within the area of interest • Oi; =The number of microcapillary occlusion in the i^th capillary network • Ni=Total number of microcapillaries in the i^th capillary network • Ii1=The first electrical impedance reading of the i^th capillary network • Ii2=The second electrical impedance reading of the i^th capillary network […]

RBC = assay: MIRCA functional assay of RBC deformability, quantitative microcapillary occlusion (Occlusion Index); format: cell-based, human; details: people with variant SCD (HbSC) and SCA (HbSS)
From the text: Abnormal RBC deformability contributes to the underlying pathophysiology of SCD, and we tested this in variant SCD and sickle cell trait (SCT). We have developed MIRCA, a novel functional assay of RBC deformability, assessed by quantitative microcapillary occlusion (‘Occlusion Index, OI’, FIG. 18). This in vitro test recapitulates key geometric features of the capillary bed: >80,000 narrow openings and side anastomoses ‘on-a-chip’, under normoxia or hypoxia (FIG. 18).

[1] = sample 98% healthy RBCs and 2% stiff RBCs
[2] = sample 99% healthy RBCs and 1% stiff RBCs

| SMILES | RBC Electrical Impedance Index (REI) (healthy RBCs; [1]) [%] | RBC Occlusion Index (ROI) (healthy RBCs; [1]) [%] | RBC Electrical Impedance Index (REI) (healthy RBCs; [2]) [%] | RBC Occlusion Index (ROI) (healthy RBCs; [2]) [%] | association of RBC Occlusion Index (OI) with drug use (RBC) |
| --- | --- | --- | --- | --- | --- |
| O=CCCCC=O [glutaraldehyde] | 20.99 | 36.16 | 9.40 | 17.15 |  |
| NC(=O)NO [hydroxyurea] |  |  |  |  | inversely associated |
